Experimental data: the NIST ThermoML archive (doi:10.1021/je201277d)
Numbers after ± are expanded uncertainties.

Tests used:
[1] = refractive index (other wavelength) (dimensionless); conditions: 298.15 K, 101.3 kPa, Liquid
[2] = refractive index (other wavelength) (dimensionless); wn = mass fraction of the nth substance listed; conditions: 298.15 K, 101.3 kPa, Liquid

With C1CCCCC1 [cyclohexane] the refractive index ([1]; Wavelength=670 nm) was 1.42253 ± 0.00063 and the refractive index ([1]; Wavelength=925 nm) was 1.41832 ± 0.00063.

With C1CCCCC1 [cyclohexane] + CO the refractive index ([2]; Wavelength=670 nm, w1 = 0.1) was 1.33196 ± 0.00063, the refractive index ([2]; Wavelength=670 nm, w1 = 0.2004) was 1.34128 ± 0.00063 and the refractive index ([2]; Wavelength=670 nm, w1 = 0.2999) was 1.34987 ± 0.00063. It also gave a refractive index ([2]; Wavelength=925 nm, w1 = 0.1) of 1.32811 ± 0.00063, a refractive index ([2]; Wavelength=925 nm, w1 = 0.2004) of 1.33737 ± 0.00063 and a refractive index ([2]; Wavelength=925 nm, w1 = 0.2999) of 1.34602 ± 0.00063.

In the case of C1CCCCC1 [cyclohexane] + Cc1ccccc1, the refractive index ([2]; Wavelength=670 nm, w1 = 0.0996) is reported as 1.48158 ± 0.00063, the refractive index ([2]; Wavelength=670 nm, w1 = 0.2002) is reported as 1.47363 ± 0.00063 and the refractive index ([2]; Wavelength=670 nm, w1 = 0.2995) is reported as 1.46616 ± 0.00063. It also gave a refractive index ([2]; Wavelength=670 nm, w1 = 0.4003) of 1.45883 ± 0.00063, a refractive index ([2]; Wavelength=670 nm, w1 = 0.5004) of 1.45162 ± 0.00063 and a refractive index ([2]; Wavelength=670 nm, w1 = 0.6002) of 1.44527 ± 0.00063. It also gave a refractive index ([2]; Wavelength=670 nm, w1 = 0.7) of 1.43903 ± 0.00063, a refractive index ([2]; Wavelength=670 nm, w1 = 0.8005) of 1.43327 ± 0.00063 and a refractive index ([2]; Wavelength=670 nm, w1 = 0.9001) of 1.42768 ± 0.00063. For the same compound, the refractive index ([2]; Wavelength=925 nm, w1 = 0.0996) was 1.47383 ± 0.00063, the refractive index ([2]; Wavelength=925 nm, w1 = 0.2002) was 1.46618 ± 0.00063 and the refractive index ([2]; Wavelength=925 nm, w1 = 0.2995) was 1.4592 ± 0.00063. It also gave a refractive index ([2]; Wavelength=925 nm, w1 = 0.4003) of 1.45229 ± 0.00063, a refractive index ([2]; Wavelength=925 nm, w1 = 0.5004) of 1.44539 ± 0.00063 and a refractive index ([2]; Wavelength=925 nm, w1 = 0.6002) of 1.43956 ± 0.00063. For the same compound, the refractive index ([2]; Wavelength=925 nm, w1 = 0.7) was 1.43363 ± 0.00063, the refractive index ([2]; Wavelength=925 nm, w1 = 0.8005) was 1.42825 ± 0.00063 and the refractive index ([2]; Wavelength=925 nm, w1 = 0.9001) was 1.42296 ± 0.00063.

Compound CO [methanol] has a refractive index ([1]; Wavelength=670 nm) of 1.32603 ± 0.00063 and a refractive index ([1]; Wavelength=925 nm) of 1.32235 ± 0.00063.

For Cc1ccccc1 [toluene], the refractive index ([1]; Wavelength=670 nm) was 1.48998 ± 0.00063 and the refractive index ([1]; Wavelength=925 nm) was 1.48176 ± 0.00063.

Cc1ccccc1 [toluene] + CO showed a refractive index ([2]; Wavelength=670 nm, w1 = 0.1001) of 1.34089 ± 0.00063, a refractive index ([2]; Wavelength=670 nm, w1 = 0.1994) of 1.35612 ± 0.00063 and a refractive index ([2]; Wavelength=670 nm, w1 = 0.3001) of 1.37219 ± 0.00063. For the same compound, the refractive index ([2]; Wavelength=670 nm, w1 = 0.4) was 1.38826 ± 0.00063, the refractive index ([2]; Wavelength=670 nm, w1 = 0.4996) was 1.4056 ± 0.00063 and the refractive index ([2]; Wavelength=670 nm, w1 = 0.6) was 1.42196 ± 0.00063. For the same compound, the refractive index ([2]; Wavelength=670 nm, w1 = 0.6994) was 1.43865 ± 0.00063, the refractive index ([2]; Wavelength=670 nm, w1 = 0.8001) was 1.45699 ± 0.00063 and the refractive index ([2]; Wavelength=670 nm, w1 = 0.8994) was 1.47418 ± 0.00063. For the same compound, the refractive index ([2]; Wavelength=925 nm, w1 = 0.1001) was 1.33686 ± 0.00063, the refractive index ([2]; Wavelength=925 nm, w1 = 0.1994) was 1.35152 ± 0.00063 and the refractive index ([2]; Wavelength=925 nm, w1 = 0.3001) was 1.36718 ± 0.00063. For the same compound, the refractive index ([2]; Wavelength=925 nm, w1 = 0.4) was 1.38279 ± 0.00063, the refractive index ([2]; Wavelength=925 nm, w1 = 0.4996) was 1.39956 ± 0.00063 and the refractive index ([2]; Wavelength=925 nm, w1 = 0.6) was 1.41564 ± 0.00063. It also gave a refractive index ([2]; Wavelength=925 nm, w1 = 0.6994) of 1.43182 ± 0.00063, a refractive index ([2]; Wavelength=925 nm, w1 = 0.8001) of 1.44951 ± 0.00063 and a refractive index ([2]; Wavelength=925 nm, w1 = 0.8994) of 1.46633 ± 0.00063.
